Experimental data: a compilation of properties of binary mixtures (doi:10.1016/j.molliq.2020.112816)

Assay: xn = mol fraction of the nth substance listed
Conditions: 101 kPa

NC=O + CCCC[n+]1ccn(C)c1.F[B-](F)(F)F
Conditions | speed of sound [m/s] | viscosity [mPa·s]
293.15 K, x2 = 0.0675 | 1614.2 | 4.01
293.15 K, x2 = 0.135 | 1613.4 | 4.81
293.15 K, x2 = 0.2054 | 1611.9 | 7
293.15 K, x2 = 0.4499 | 1602.9 | 24.97
293.15 K, x2 = 0.6639 | 1593.2 | 54.2
293.15 K, x2 = 0.7588 | 1588.7 | 71.4
293.15 K, x2 = 0.8107 | 1586.2 | 81.8
293.15 K, x2 = 0.8626 | 1583.7 | 93.3
293.15 K, x2 = 0.9313 | 1580.3 | 109.6
298.15 K, x2 = 0 | 1602.4 | 3.27
298.15 K, x2 = 0.0675 | 1603 | 3.73
298.15 K, x2 = 0.135 | 1602.3 | 4.65
298.15 K, x2 = 0.2054 | 1600.8 | 6.6
298.15 K, x2 = 0.3629 | 1595.4 | 14.43
298.15 K, x2 = 0.4499 | 1591.8 | 20.95
298.15 K, x2 = 0.5095 | 1589.3 | 26.31
298.15 K, x2 = 0.569 | 1586.6 | 32.4
298.15 K, x2 = 0.6639 | 1582.2 | 43.6
298.15 K, x2 = 0.8626 | 1572.7 | 73.4
298.15 K, x2 = 0.9313 | 1569.3 | 85.6
303.15 K, x2 = 0 | 1590.5 | 2.918
303.15 K, x2 = 0.0675 | 1591.4 | 3.28
303.15 K, x2 = 0.135 | 1590.9 | 4.23
303.15 K, x2 = 0.2054 | 1589.4 | 5.84
303.15 K, x2 = 0.2758 | 1587.2 | 8.24
303.15 K, x2 = 0.3629 | 1584 | 12.35
303.15 K, x2 = 0.5095 | 1578 | 21.66
303.15 K, x2 = 0.569 | 1575.3 | 26.36
303.15 K, x2 = 0.6639 | 1570.9 | 35
303.15 K, x2 = 0.7588 | 1566.5 | 44.9
308.15 K, x2 = 0 | 1578.3 | 2.607
308.15 K, x2 = 0.0675 | 1579.4 | 3.049
308.15 K, x2 = 0.135 | 1579 | 3.99
308.15 K, x2 = 0.2054 | 1577.5 | 5.48
308.15 K, x2 = 0.3629 | 1572.2 | 10.72
308.15 K, x2 = 0.5095 | 1566.2 | 17.95
308.15 K, x2 = 0.569 | 1563.6 | 21.5
308.15 K, x2 = 0.6639 | 1559.3 | 27.92
308.15 K, x2 = 0.7588 | 1554.8 | 35.3
308.15 K, x2 = 0.8107 | 1552.3 | 39.7
308.15 K, x2 = 0.8626 | 1549.8 | 44.5
313.15 K, x2 = 0 | 1565.9 | 2.328
313.15 K, x2 = 0.0675 | 1567.3 | 2.599
313.15 K, x2 = 0.135 | 1567 | 3.4
313.15 K, x2 = 0.2758 | 1563.3 | 6.21
313.15 K, x2 = 0.5095 | 1554.2 | 14.39
313.15 K, x2 = 0.569 | 1551.6 | 17.16
313.15 K, x2 = 0.6639 | 1547.3 | 22.22
313.15 K, x2 = 0.7588 | 1542.9 | 28.02
313.15 K, x2 = 0.8107 | 1540.4 | 31.6
313.15 K, x2 = 0.8626 | 1537.8 | 35.2
313.15 K, x2 = 0.9313 | 1534.3 | 40.4
318.15 K, x2 = 0 | 1553.1 | 2.096
318.15 K, x2 = 0.0675 | 1554.9 | 2.4
318.15 K, x2 = 0.135 | 1554.6 | 2.982
318.15 K, x2 = 0.2054 | 1553 | 3.88
318.15 K, x2 = 0.3629 | 1547.7 | 7.11
318.15 K, x2 = 0.4499 | 1544.2 | 9.72
318.15 K, x2 = 0.5095 | 1541.8 | 11.78
318.15 K, x2 = 0.7588 | 1530.5 | 23.24
318.15 K, x2 = 0.8107 | 1528 | 26.2
318.15 K, x2 = 0.9313 | 1521.9 | 33.8

CCCC[n+]1ccn(C)c1.F[B-](F)(F)F + NC=O
x1 = 1
Conditions | speed of sound [m/s] | viscosity [mPa·s]
293.15 K | 1576.8 | 127.6
298.15 K | 1565.7 | 98.9
303.15 K | 1554.4 | 76.3
313.15 K | 1530.5 | 46.2
